Source: PMC7023430, “4-Aminobenzoic Acid Derivatives: Converting Folate Precursor to Antimicrobial and Cytotoxic Agents” (Biomolecules, 2019)
Values after ≈ are worked out from the molar mass of the structure shown. Read-outs that look alike come from different tables or passages of the source.

How the values were obtained:
[1] = system: Staphylococcus epidermidis H 6966/08; test: Antibacterial microdilution broth method, S. epidermidis; type: cell-based; conditions: Staphylococcus epidermidis, H6966/08, S. epidermidis
[2] = system: Aspergillus fumigatus 231; test: Antifungal microdilution broth method, A. fumigatus; type: cell-based
How it was run: (§1)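 EUCAST-based broth microdilution with slight modifications: compounds dissolved in DMSO and diluted twofold in RPMI-1640 with L-glutamine, 2% glucose, MOPS-buffered to pH 7.0. MIC endpoints were read visually, in duplicate, valid only if parallel MICs differed by no more than one dilution step.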

[3] = system: Pseudomonas aeruginosa ATCC 27853, CCM 3955; test: Antibacterial microdilution broth method, P. aeruginosa; type: cell-based; conditions: Pseudomonas aeruginosa, P. aeruginosa
[4] = system: Candida glabrata 20/I; test: Antifungal microdilution broth method, C. glabrata; type: cell-based; conditions: Nakaseomyces glabratus
How it was run: as §1

[5] = system: phytopathogenic fungi; parameters: method as in PMID 29283262; conditions: read-out: IC50 of PABA, phytopathogenic fungi; cited from earlier work
[6] = system: Enterococcus faecalis ATCC 29212, CCM 4224; test: Antibacterial microdilution broth method, E. faecalis; type: cell-based; conditions: Enterococcus faecalis
[7] = system: Staphylococcus aureus ATCC 29213, CCM 4223; test: Antibacterial microdilution broth method, S. aureus; type: cell-based
[8] = system: E. coli, Listeria monocytogenes and Salmonella enteritidis; parameters: method as in PMID 7730199; conditions: strains distinct from this study; cited from earlier work
[9] = system: Mycobacterium avium 330/88; test: Antimycobacterial micromethod in Šula's medium, M. avium; type: cell-based
[10] = system: Lichtheimia corymbifera 272; test: Antifungal microdilution broth method, L. corymbifera; type: cell-based
How it was run: as §1

[11] = system: Mycobacterium kansasii 235/80; test: Antimycobacterial micromethod in Šula's medium, M. kansasii 235/80; type: cell-based
[12] = system: M. kansasii 6509/96 (clinical isolate); test: Antimycobacterial micromethod in Šula's medium, M. kansasii 6509/96; type: cell-based; conditions: Mycobacterium kansasii
[13] = system: methicillin-resistant Staphylococcus aureus ATCC 43300, CCM 4750 (MRSA); test: Antibacterial microdilution broth method, MRSA; type: cell-based; conditions: Staphylococcus aureus
[14] = system: ESBL-positive Klebsiella pneumoniae J 14368/08
[15] = system: Candida albicans ATCC 44859; test: Antifungal microdilution broth method, C. albicans; type: cell-based
How it was run: as §1

[16] = system: four Gram-positive and four Gram-negative strains; test: Antibacterial activity; type: cell-based; conditions: statement over the bacterial panel; time not stated; read-out: MIC, antibacterial activity
[17] = system: Mycobacterium tuberculosis H37Rv (331/88); test: Antimycobacterial micromethod in Šula's medium, M. tuberculosis; type: cell-based
[18] = system: eight fungal strains; test: Antifungal activity; type: cell-based; conditions: statement over the fungal panel; time not stated
Description: The antifungal properties were evaluated against five yeast strains, namely: Candida albicans ATCC 44859, Candida tropicalis 156, Candida krusei […], Candida glabrata 20/I, Trichosporon […] 1188 and three strains of filamentous fungi: Aspergillus fumigatus 231, Lichtheimia corymbifera 272, and Trichophyton interdigitale 445. A microdilution broth method was performed according to EUCAST II, III instructions with slight modifications. Briefly, tested compounds were dissolved in DMSO and diluted in a twofold manner with RPMI-1640 medium with L-glutamine, supplemented with 2% glucose (w/v) and buffered to pH 7.0 with 3 morpholinopropane-1-sulfonic acid (all components were purchased from Sigma-Aldrich, USA). […] Positive controls consisted of test microbe solely, while negative controls consisted of medium and DMSO. Internal quality control was included too. Visual inspection was used for MIC endpoints evaluation. The experiments were conducted in duplicates. For the results to be valid, the difference in MIC determined from two parallel measurements must not be greater than one step on the dilution scale. PABA and triazole antimycotic drug fluconazole were involved as the reference compounds.

[19] = system: Trichosporon asahii 1188; test: Antifungal microdilution broth method, T. asahii; type: cell-based
How it was run: as §1

[20] = system: Candida krusei E28; test: Antifungal microdilution broth method, C. krusei; type: cell-based; conditions: Pichia kudriavzevii
How it was run: as §1

[21] = system: Escherichia coli ATCC 25922, CCM 3954; test: Antibacterial microdilution broth method, E. coli; type: cell-based; conditions: Escherichia coli
[22] = system: Klebsiella pneumoniae D 11750/08
[23] = system: Candida tropicalis 156; test: Antifungal microdilution broth method, C. tropicalis; type: cell-based
How it was run: as §1

[24] = system: Trichophyton interdigitale 445; test: Antifungal microdilution broth method, T. interdigitale; type: cell-based
How it was run: as §1

## Nc1ccc(C(=O)O)cc1 [PABA 1, 4-aminobenzoic acid]
[1]; 24 h incubation, read-out: MIC SE 24 h
  MIC: > 500 µM
[1]; 48 h incubation, read-out: MIC SE 48 h
  MIC: > 500 µM
[2]; 24 h, read-out: MIC AF 24 h
  MIC: > 500 µM
[2]; 48 h, read-out: MIC AF 48 h
  MIC: > 500 µM
[3]; 24 h incubation, read-out: MIC PA 24 h
  MIC: > 500 µM
[3]; 48 h incubation, read-out: MIC PA 48 h
  MIC: > 500 µM
[4]; 24 h, read-out: MIC CG 24 h
  MIC: > 500 µM
[4]; 48 h, read-out: MIC CG 48 h
  MIC: > 500 µM
[5]
  IC50: 1000 to 3000 µM
[6]; 24 h incubation, read-out: MIC EF 24 h
  MIC: > 500 µM
[6]; 48 h incubation, read-out: MIC EF 48 h
  MIC: > 500 µM
[7]; 24 h incubation, read-out: MIC SA 24 h
  MIC: > 500 µM
[7]; 48 h incubation, read-out: MIC SA 48 h
  MIC: > 500 µM
[8]
  MIC of PABA: 9000 to 24000 µM
[9]; 330/88, 336 h, 14 days incubation at 37 °C, read-out: MIC M. avium 330/88 14 d
  MIC: > 1000 µM
[9]; 330/88, 504 h, 21 days incubation at 37 °C, read-out: MIC M. avium 330/88 21 d
  MIC: > 1000 µM
[10]; 24 h, read-out: MIC LC 24 h
  MIC: > 500 µM
[10]; 48 h, read-out: MIC LC 48 h
  MIC: > 500 µM
[11]; 235/80, 168 h, 7 days incubation at 37 °C, read-out: MIC M. kansasii 235/80 7 d
  MIC: 1000 µM (≈ 137 µg/mL)
[11]; 235/80, 336 h, 14 days incubation at 37 °C, read-out: MIC M. kansasii 235/80 14 d
  MIC: > 1000 µM
[11]; 235/80, 504 h, 21 days incubation at 37 °C, read-out: MIC M. kansasii 235/80 21 d
  MIC: > 1000 µM
[12]; 168 h, 7 days incubation at 37 °C, read-out: MIC M. kansasii 6509/96 7 d
  MIC: 1000 µM (≈ 137 µg/mL)
[12]; 336 h, 14 days incubation at 37 °C, read-out: MIC M. kansasii 6509/96 14 d
  MIC: 1000 µM (≈ 137 µg/mL)
[12]; 504 h, 21 days incubation at 37 °C, read-out: MIC M. kansasii 6509/96 21 d
  MIC: 1000 µM (≈ 137 µg/mL)
[13]; 24 h incubation, read-out: MIC MRSA 24 h
  MIC: > 500 µM
[13]; 48 h incubation, read-out: MIC MRSA 48 h
  MIC: > 500 µM
[14]; 24 h
  MIC KP-E 24 h: >500 µM
[14]; 48 h
  MIC KP-E 48 h: >500 µM
[15]; ATCC44859, 24 h, read-out: MIC CA 24 h
  MIC: > 500 µM
[15]; ATCC44859, 48 h, read-out: MIC CA 48 h
  MIC: > 500 µM
[16]
  MIC: > 500 µM
[17]; 336 h, 14 days incubation at 37 °C, read-out: MIC Mtb. 331/88 14 d
  MIC: > 1000 µM
[17]; 504 h, 21 days incubation at 37 °C, read-out: MIC Mtb. 331/88 21 d
  MIC: > 1000 µM
[18]
  MIC: > 500 µM
[19]; 24 h, read-out: MIC TA 24 h
  MIC: > 500 µM
[19]; 48 h, read-out: MIC TA 48 h
  MIC: > 500 µM
[20]; 24 h, read-out: MIC CK 24 h
  MIC: > 500 µM
[20]; 48 h, read-out: MIC CK 48 h
  MIC: > 500 µM
[21]; 24 h incubation, read-out: MIC EC 24 h
  MIC: > 500 µM
[21]; 48 h incubation, read-out: MIC EC 48 h
  MIC: > 500 µM
[22]; 24 h
  MIC KP 24 h: >500 µM
[22]; 48 h
  MIC KP 48 h: >500 µM
[23]; 24 h, read-out: MIC CT 24 h
  MIC: > 500 µM
[23]; 48 h, read-out: MIC CT 48 h
  MIC: > 500 µM
[24]; 72 h, read-out: MIC TI 72 h
  MIC: > 500 µM
[24]; 120 h, read-out: MIC TI 120 h
  MIC: > 500 µM
